The values below are quoted from earlier work in patent US9579280B2, “Controlled release delivery system for nasal applications and method of treatment” (MATTERN PHARMA AG, priority 2003, dated 2017).

One data set has as its system female sexual response. To be noted: for sexual arousal: sublingual or single vaginal dose.
In data set [1] the target is T1, sex hormone binding globulin (SHBG) (Homo sapiens, UniProt P04278).
T1 sequence (P04278 30-402): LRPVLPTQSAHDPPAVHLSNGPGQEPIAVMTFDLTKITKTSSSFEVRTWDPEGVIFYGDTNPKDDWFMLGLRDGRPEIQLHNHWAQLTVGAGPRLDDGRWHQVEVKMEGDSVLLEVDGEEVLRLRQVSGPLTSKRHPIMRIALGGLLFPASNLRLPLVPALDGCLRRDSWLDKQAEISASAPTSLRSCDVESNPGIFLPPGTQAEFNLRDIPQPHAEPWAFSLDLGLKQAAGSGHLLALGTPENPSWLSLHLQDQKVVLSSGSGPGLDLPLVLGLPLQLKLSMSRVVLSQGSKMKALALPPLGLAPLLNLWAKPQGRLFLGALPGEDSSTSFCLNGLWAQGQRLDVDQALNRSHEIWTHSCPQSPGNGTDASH

The conditions of data set [2]: relative to water.
For data set [3] the following is noted: nasal.

The structures appear in SMILES notation. Where two headings read alike, the source gives them in different places.

On to `CCC(=O)O[C@H]1CC[C@H]2[C@@H]3CCC4=CC(=O)CC[C@]4(C)[C@H]3CC[C@]12C` [testosterone propionate], for which the “time of testosterone and free testosterone peak” value with female sexual response (single vaginal dose) is 5.5 h. The sexual arousal entry in the data set on female sexual response is reported as “does not trigger sexual arousal”.
In the case of `C[C@]12CC[C@H]3[C@@H](CCC4=CC(=O)CC[C@@]43C)[C@@H]1CC[C@@H]2O` [Testosterone, testosterone], the “fraction of circulating plasma testosterone bound to SHBG” value in data set [1] is recorded as “Approximately 40%”. Further, the “unbound (free) fraction” value in data set [1] (in men) was 2%; in data set [1] (in women), “up to 3%”. The “solubility in vegetable oil” value in data set [2] is on record as “somewhat more soluble in vegetable oil”.
For the molecule `CCCCCCCCCCC(=O)O[C@H]1CC[C@H]2[C@@H]3CCC4=CC(=O)CC[C@]4(C)[C@H]3CC[C@]12C` [testosterone undecanoate], the sexual arousal result in the data set on female sexual response was “triggers sexual arousal”.
With `CN(C)CC(=O)O[C@H]1CC[C@H]2[C@@H]3CCC4=CC(=O)CC[C@]4(C)[C@H]3CC[C@]12C` [testosterone 17β-N,N-dimethylglycinate], in data set [3], the elimination half-life entry is on record as “about fifty-five” and the “serum levels compared with intravenous administration” value is reported as “equal to intravenous administration”. Further, the “time to peak plasma concentration” value in data set [3] (25 mg dose) was “twelve”. Further, in data set [3] (50 mg dose), the “time to peak plasma concentration” value is “twenty”.
